Reference: BindingDB's records for doi:10.1016/s0960-894x(00)00113-x (Kyoto University, 2000)

Assay: The compound was tested for its inhibitory activity against platelet aggregation

SMILES | IC50 [nM]
C[C@H](NC(=O)c1ccc(CNC(=N)N)cc1)C(=O)N1CCC(C(=O)O)CC1 | 708000
CCCCCCOC(/C=C/c1ccc(C(=N)N)cc1)C(C)(C)C(=O)N1CCC(CC(=O)O)CC1 (stereo unspecified) | 794
C[C@H](NC(=O)c1ccc(C(=N)N)cc1)C(=O)N1CCC(C(=O)O)CC1 | 110000
N=C(N)c1ccc(C(=O)N[C@@H](CC(=O)N2CCC(CC(=O)O)CC2)C(=O)OC2CCCCC2)cc1 | 1900
CC(C)(C(=O)/C=C/c1ccc(C(=N)N)cc1)C(=O)N1CCC(CC(=O)O)CC1 | 3470
CCCCNC(=N)c1ccc(C(=O)N[C@H](CC)C(C)(C)C(=O)N2CCC(CC(=O)O)CC2)c(F)c1 | 501
N=C(N)c1ccc(C(=O)N[C@@H](CC(=O)N2CCC(CC(=O)O)CC2)C(=O)Oc2ccccc2)cc1 | 4070
CN(CC(=O)N1CCC(C(=O)O)CC1)C(=O)c1ccc(CNC(=N)N)cc1 | 52500
CC(C)(CCC(=O)c1ccc(C(=N)N)cc1)C(=O)N1CCC(CC(=O)O)CC1 | 631
CN(CC(=O)N1CCC(CC(=O)O)CC1)C(=O)c1ccc(C(=N)N)cc1 | 7590
C[C@H](NC(=O)c1ccc(C(=N)N)cc1)C(=O)N1CCC(CC(=O)O)CC1 | 30200
CN(CC(=O)N1CCC(CC(=O)O)CC1)C(=O)c1ccc(N=C(N)N)cc1 | 759000
C[C@@H](CC(=O)N1CCC(CC(=O)O)CC1)NC(=O)c1ccc(C(=N)N)cc1 | 5010
C#CCN(C(=O)c1ccc(C(=N)N)cc1)[C@H](CCCC)C(C)(C)C(=O)N1CCC(CC(=O)O)CC1 | 708
NC(N)=Nc1ccc(C(=O)NCCC(=O)N2CCC(C(=O)O)CC2)cc1 | 759000
CN(CC(=O)N1CCC(C(=O)O)CC1)C(=O)c1ccc(N=C(N)N)cc1 | 100000
N=C(N)c1ccc(C(=O)NCCC(=O)N2CCC(C(=O)O)CC2)cc1 | 33100
CC(C)[C@@H](CC(=O)N1CCC(CC(=O)O)CC1)NC(=O)c1ccc(C(=N)N)cc1 | 9120
N=C(N)c1ccc(C(=O)N[C@H](CC(=O)N2CCC(CC(=O)O)CC2)c2ccccc2)cc1 | 5250
N=C(N)c1ccc(C(=O)NCCC(=O)N2CCC(COC(=O)O)CC2)cc1 | 18200
COC(=O)C1CCN(C(=O)CN(C)C(=O)c2ccc(C(=N)N)cc2)CC1 | 331000
CC(C)(C(=O)N1CCC(CC(=O)O)CC1)C(/C=C/c1ccc(C(=N)N)cc1)OCc1ccccc1 (stereo unspecified) | 363
CN(CCC(=O)N1CCC(CC(=O)O)CC1)C(=O)c1ccc(C(=N)N)cc1 | 6460
CC(C)(CNC(=O)c1ccc(C(=N)N)cc1)C(=O)N1CCC(CC(=O)O)CC1 [{1-[3-(4-Carbamimidoyl-benzoylamino)-2,2-dimethyl-propionyl]-piperidin-4-yl}-acetic acid] | 575

These reach a lower IC50. Values come first.

IC50 [nM] | SMILES
331 | CC(C)(C(=O)N1CCC(CC(=O)O)CC1)[C@H](NC(=O)c1ccc(C(=N)N)cc1)c1ccc(Cl)cc1
302 | CC(C)(C(=O)N1CCC(CC(=O)O)CC1)C(O)/C=C/c1ccc(C(=N)N)cc1 (stereo unspecified)
240 | COC(CCc1ccc(C(=N)N)cc1)C(C)(C)C(=O)N1CCC(CC(=O)O)CC1 (stereo unspecified)
209 | CC(C)(/C=C/C(=O)c1ccc(C(=N)N)cc1)C(=O)N1CCC(CC(=O)O)CC1 [{1-[(E)-5-(4-Carbamimidoyl-phenyl)-2,2-dimethyl-5-oxo-pent-3-enoyl]-piperidin-4-yl}-acetic acid]
191 | CC(C)(C(=O)N1CCC(CC(=O)O)CC1)[C@H](NC(=O)c1ccc(C(=N)N)cc1)c1ccc2ccccc2c1
186 | CC(C)(C(=O)N1CCC(CC(=O)O)CC1)[C@H](NC(=O)c1ccc(C(=N)N)cc1Cl)c1ccccc1
151 | CN(C(=O)c1ccc(C(=N)N)cc1)[C@H](c1ccccc1)C(C)(C)C(=O)N1CCC(CC(=O)O)CC1
135 | C=CCOC(/C=C/c1ccc(C(=N)N)cc1)C(C)(C)C(=O)N1CCC(CC(=O)O)CC1 (stereo unspecified)
129 | CCOC(/C=C/c1ccc(C(=N)N)cc1)C(C)(C)C(=O)N1CCC(CC(=O)O)CC1 (stereo unspecified)
126 | COC(/C=C/c1ccc(C(=N)N)cc1)C(C)(C)C(=O)N1CCC(CC(=O)O)CC1 (stereo unspecified)
126 | CC(C)(C(=O)N1CCC(CC(=O)O)CC1)[C@H](NC(=O)c1ccc(C(=N)N)cc1)c1cccc(Cl)c1
115 | CC(C)(C(=O)N1CCC(CC(=O)O)CC1)[C@H](NC(=O)c1ccc(C(=N)N)cc1)c1ccccc1
110 | CC(C)(C(=O)N1CCC(CC(=O)O)CC1)[C@H](NC(=O)c1ccc(C(=N)N)cc1)c1ccc(O)cc1
85 | C/C=C/[C@@H](NC(=O)c1ccc(C(=N)N)cc1)C(C)(C)C(=O)N1CCC(CC(=O)O)CC1
79 | CC[C@@H](NC(=O)c1ccc(C(=N)N2CCOCC2)cc1F)C(C)(C)C(=O)N1CCC(CC(=O)O)CC1
79 | CCCCC[C@@H](NC(=O)c1ccc(C(=N)N)cc1)C(C)(C)C(=O)N1CCC(CC(=O)O)CC1

IC50 [nM] | SMILES
79 | CC(C)(C(=O)N1CCC(CC(=O)O)CC1)[C@@H](CCc1ccccc1)NC(=O)c1ccc(C(=N)N)cc1
76 | CC(C)[C@@H](NC(=O)c1ccc(C(=N)N)cc1)C(C)(C)C(=O)N1CCC(CC(=O)O)CC1
45 | CC[C@@H](NC(=O)c1ccc(C(=N)N2CCCC2)cc1F)C(C)(C)C(=O)N1CCC(CC(=O)O)CC1
43 | CC[C@@H](NC(=O)c1ccc(C(=N)N)cc1)C(C)(C)C(=O)N1CCC(CC(=O)O)CC1
41 | CC(C)C[C@@H](NC(=O)c1ccc(C(=N)N)cc1)C(C)(C)C(=O)N1CCC(CC(=O)O)CC1
41 | CCCC[C@@H](NC(=O)c1ccc(C(=N)N)cc1)C(C)(C)C(=O)N1CCC(CC(=O)O)CC1
41 | CCC[C@@H](NC(=O)c1ccc(C(=N)N)cc1)C(C)(C)C(=O)N1CCC(CC(=O)O)CC1
41 | C[C@@H](NC(=O)c1ccc(C(=N)N)cc1)C(C)(C)C(=O)N1CCC(CC(=O)O)CC1
40 | CC[C@@H](NC(=O)c1ccc(C(=N)N2CCN(c3ccc(F)cc3)CC2)cc1F)C(C)(C)C(=O)N1CCC(CC(=O)O)CC1
38 | CC(C)(C(=O)N1CCC(CC(=O)O)CC1)[C@H](NC(=O)c1ccc(C(=N)N)cc1)c1cccc(O)c1
38 | C[C@@H](NC(=O)c1ccc(C(=N)N)cc1F)C(C)(C)C(=O)N1CCC(CC(=O)O)CC1
37 | CCCC[C@@H](NC(=O)c1ccc(C(=N)N)cc1F)C(C)(C)C(=O)N1CCC(CC(=O)O)CC1
36 | CC[C@@H](NC(=O)c1ccc(C(=N)N2CCN(C)CC2)cc1F)C(C)(C)C(=O)N1CCC(CC(=O)O)CC1
31 | CC[C@@H](NC(=O)c1ccc(C(=N)N)cc1F)C(C)(C)C(=O)N1CCC(CC(=O)O)CC1
24 | CC[C@@H](NC(=O)c1ccc(C(=N)N2CCC(O)CC2)cc1F)C(C)(C)C(=O)N1CCC(CC(=O)O)CC1
22 | CC[C@@H](NC(=O)c1ccc(C(=N)N2CCSC2)cc1F)C(C)(C)C(=O)N1CCC(CC(=O)O)CC1
